Usually Ki stands for the equilibrium dissociation constant of an inhibitor or competing ligand from its target. A low value points to higher affinity.

GST-tagged-Wee1 kinase, sequence (P30291 whole entry): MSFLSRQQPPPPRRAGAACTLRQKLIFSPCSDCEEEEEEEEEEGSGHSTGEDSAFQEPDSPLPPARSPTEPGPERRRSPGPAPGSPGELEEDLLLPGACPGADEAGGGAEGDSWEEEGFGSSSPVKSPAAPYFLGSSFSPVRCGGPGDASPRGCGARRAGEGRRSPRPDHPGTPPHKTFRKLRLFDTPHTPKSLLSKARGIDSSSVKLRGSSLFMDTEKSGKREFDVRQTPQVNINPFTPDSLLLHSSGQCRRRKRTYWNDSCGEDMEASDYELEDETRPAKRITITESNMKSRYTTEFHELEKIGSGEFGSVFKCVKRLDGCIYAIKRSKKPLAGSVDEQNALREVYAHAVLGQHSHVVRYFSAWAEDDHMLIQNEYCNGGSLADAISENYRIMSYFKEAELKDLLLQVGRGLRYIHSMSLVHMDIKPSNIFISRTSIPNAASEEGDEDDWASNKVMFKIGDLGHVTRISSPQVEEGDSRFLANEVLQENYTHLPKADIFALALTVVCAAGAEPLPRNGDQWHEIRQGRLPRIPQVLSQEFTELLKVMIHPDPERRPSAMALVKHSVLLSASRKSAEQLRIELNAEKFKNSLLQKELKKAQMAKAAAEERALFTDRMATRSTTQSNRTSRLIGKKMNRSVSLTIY

This assay addresses GST-tagged-Wee1 kinase (Homo sapiens, UniProt P30291). Nature of the assay: Wee1 time-resolved fluorescence equilibrium binding assay (displacement of Oregon Green-labeled ATP-competitive kinase probe). As for the experimental part:
Wee1 kinase was assayed using a time-resolved fluorescence equilibrium binding assay monitoring displacement of a rapidly reversible Oregon Green-labeled ATP-competitive kinase probe (N-(2-(2-(2-(4-(4-(5-chloro-4-(2-(1-hydroxycyclobutyl)thiazol-5-yl)-1H-pyrrolo[2,3-b]pyridin-2-yl)phenyl)piperazin-1-yl)ethoxy)ethoxy)ethyl)-2′,7′-difluoro-3′,6′-dihydroxy-3-oxo-3H-spiro[isobenzofuran-1,9′-xanthene]-5-carboxamide) by competitive Wee1 inhibitors.
As for `C=CCn1nc(-c2ccccc2)c2nc(Nc3ccc(N4CCN(C)CC4)cc3)ncc2c1=O` [Example 5, 6-allyl-2-{[4-(4-methylpiperazin-1-yl)phenyl]amino}-8-phenylpyrimido[4,5-d]pyridazin-5(6H)-one], the affinity corresponds to a Ki of 6 nM.

In the case of `COCc1nn(-c2c(Cl)cccc2Cl)c(=O)c2cnc(Nc3ccc(N4CCN(C)CC4)cc3)nc12` [Example 423, 6-(2,6-dichlorophenyl)-8-(methoxymethyl)-2-{[4-(4-methylpiperazin-1-yl)phenyl]amino}pyrimido[4,5-d]pyridazin-5(6H)-one], the Ki was 0.7 nM.

The molecule `Cc1ccccc1-n1nc(-c2ccco2)c2nc(Nc3ccc(N4CCCC4=O)cc3)ncc2c1=O` [Example 135, 8-(2-furyl)-6-(2-methylphenyl)-2-{[4-(2-oxopyrrolidin-1-yl)phenyl]amino}pyrimido[4,5-d]pyridazin-5(6H)-one] showed a Ki of 8 nM.

`CCCc1nn(-c2ccccc2C)c(=O)c2cnc(Nc3ccc(N4CCN(C)CC4)cc3)nc12` [Example 18, 6-(2-methylphenyl)-2-{[4-(4-methylpiperazin-1-yl)phenyl]amino}-8-propylpyrimido[4,5-d]pyridazin-5(6H)-one] displayed a Ki of 4 nM.

`C=Cn1cc(-c2nn(-c3c(Cl)cccc3Cl)c(=O)c3cnc(Nc4ccc(N5CCN(C)CC5)cc4)nc23)cn1` [Example 201, 6-(2,6-dichlorophenyl)-8-(1-ethenyl-1H-pyrazol-4-yl)-2-{[4-(4-methylpiperazin-1-yl)phenyl]amino}pyrimido[4,5-d]pyridazin-5(6H)-one] had a Ki of 0.2 nM.

In turn, `CN1CCN(c2ccc(Nc3ncc4c(=O)n(-c5c(Cl)cccc5Cl)nc(-c5ccc(C(=O)NC6CCC6)cc5)c4n3)cc2)CC1` [Example 292, N-cyclobutyl-4-[6-(2,6-dichlorophenyl)-2-{[4-(4-methylpiperazin-1-yl)phenyl]amino}-5-oxo-5,6-dihydropyrimido[4,5-d]pyridazin-8-yl]benzamide] returned an inhibition constant Ki of 0.48 nM.

For `CN1CCN(C(=O)c2cccc(-c3nn(-c4c(Cl)cccc4Cl)c(=O)c4cnc(Nc5ccc(N6CCN(C)CC6)cc5)nc34)c2)CC1` [Example 192, 6-(2,6-dichlorophenyl)-8-{3-[(4-methylpiperazin-1-yl)carbonyl]phenyl}-2-{[4-(4-methylpiperazin-1-yl)phenyl]amino}pyrimido[4,5-d]pyridazin-5(6H)-one], the Ki stood at 0.02 nM.

With `CN1CCN(c2ccc(Nc3ncc4c(=O)n(-c5c(F)cccc5Cl)nc(-c5ccncn5)c4n3)cc2)CC1` [Example 298, 6-(2-chloro-6-fluorophenyl)-2-{[4-(4-methylpiperazin-1-yl)phenyl]amino}-8-(pyrimidin-4-yl)pyrimido[4,5-d]pyridazin-5(6H)-one], the Ki came to 1.8 nM.

`COc1cc(Nc2ncc3c(=O)n(-c4ccccc4C)nc(-c4ccccc4)c3n2)ccc1N1CCN(C(C)C)CC1` [Example 113, 2-{[4-(4-isopropylpiperazin-1-yl)-3-methoxyphenyl]amino}-6-(2-methylphenyl)-8-phenylpyrimido[4,5-d]pyridazin-5(6H)-one] had a Ki of 0.4 nM.

Take `COC(=O)c1cccc(-c2nn(-c3c(Cl)cccc3Cl)c(=O)c3cnc(Nc4ccc(N5CCN(C)CC5)cc4)nc23)n1` [Example 159, methyl 6-[6-(2,6-dichlorophenyl)-2-{[4-(4-methylpiperazin-1-yl)phenyl]amino}-5-oxo-5,6-dihydropyrimido[4,5-d]pyridazin-8-yl]pyridine-2-carboxylate]: the Ki came to 0.06 nM.

As to `CCC(O)(CC)c1cccc(-c2nn(-c3c(Cl)cccc3Cl)c(=O)c3cnc(Nc4ccc(N5CCN(C)CC5)cc4)nc23)n1` [Example 176, 6-(2,6-dichlorophenyl)-8-[6-(3-hydroxypentan-3-yl)pyridin-2-yl]-2-{[4-(4-methylpiperazin-1-yl)phenyl]amino}pyrimido[4,5-d]pyridazin-5(6H)-one], the Ki is 36 nM.

`CCc1nn(-c2c(Cl)cccc2Cl)c(=O)c2cnc(Nc3ccc4c(c3)CN(C)CC43CC3)nc12` [Example 402, 6-(2,6-dichlorophenyl)-8-ethyl-2-[(2′-methyl-2′,3′-dihydro-1′H-spiro[cyclopropane-1,4′-isoquinolin]-7′-yl)amino]pyrimido[4,5-d]pyridazin-5(6H)-one] displayed a Ki of 0.23 nM.

Molecule `C=CCn1nc(-c2ccco2)c2nc(Nc3ccc(N4CCN(C(C)C)CC4)cc3)ncc2c1=O` [Example 112, 6-allyl-8-(2-furyl)-2-{[4-(4-isopropylpiperazin-1-yl)phenyl]amino}pyrimido[4,5-d]pyridazin-5(6H)-one] showed a Ki of 14 nM.

For the molecule `CN1Cc2cc(Nc3ncc4c(=O)n(-c5ccccn5)nc(-c5ccccn5)c4n3)ccc2C(C)(C)C1` [Example 287], affinity was put at a Ki of 11 nM.

`CN(C)CCn1ccc(-c2nn(-c3c(Cl)cccc3Cl)c(=O)c3cnc(Nc4ccc(N5CCN(C)CC5)cc4)nc23)n1` [Example 240, 6-(2,6-dichlorophenyl)-8-{1-[2-(dimethylamino)ethyl]-1H-pyrazol-3-yl}-2-{[4-(4-methylpiperazin-1-yl)phenyl]amino}pyrimido[4,5-d]pyridazin-5(6H)-one] came in with a Ki of 0.5 nM.

Consider `COc1cc(Nc2ncc3c(=O)n(-c4ccccc4Cl)nc(-c4ccccc4)c3n2)ccc1N1CCN(C(C)C)CC1` [Example 207, 6-(2-chlorophenyl)-2-({3-methoxy-4-[4-(propan-2-yl)piperazin-1-yl]phenyl}amino)-8-phenylpyrimido[4,5-d]pyridazin-5(6H)-one], for which the Ki worked out at 0.1 nM.

The molecule `CN1CCN(c2ccc(Nc3ncc4c(=O)n(-c5ncccc5Cl)nc(-c5cn(C)cn5)c4n3)cc2)CC1` [Example 343, 6-(3-chloropyridin-2-yl)-8-(1-methyl-1H-imidazol-4-yl)-2-{[4-(4-methylpiperazin-1-yl)phenyl]amino}pyrimido[4,5-d]pyridazin-5(6H)-one] came in with a Ki of 6.9 nM.

`C=CCn1nc(C2CCCC2)c2nc(Nc3ccc(N4CCN(C)CC4)cc3)ncc2c1=O` [Example 15, 6-allyl-8-cyclopentyl-2-{[4-(4-methylpiperazin-1-yl)phenyl]amino}pyrimido[4,5-d]pyridazin-5(6H)-one] showed a Ki of 250 nM.

`CN1CCN(c2ccc(Nc3ncc4c(=O)n(-c5c(Cl)cccc5Cl)nc(-c5cccc(C#N)c5)c4n3)cc2)CC1` [Example 89, 3-[6-(2,6-dichlorophenyl)-2-{[4-(4-methylpiperazin-1-yl)phenyl]amino}-5-oxo-5,6-dihydropyrimido[4,5-d]pyridazin-8-yl]benzonitrile] had an inhibition constant Ki of 0.07 nM.

On to `CN1CCN(c2ccc(Nc3ncc4c(=O)n(-c5ccccc5)nc(Cc5ccccc5)c4n3)cc2)CC1` [Example 19, 8-benzyl-2-{[4-(4-methylpiperazin-1-yl)phenyl]amino}-6-phenylpyrimido[4,5-d]pyridazin-5(6H)-one], for which affinity was put at a Ki of 73 nM.

Regarding `Cc1nn(-c2c(F)cccc2Cl)c(=O)c2cnc(Nc3ccc(N4CCN(C)CC4)cc3)nc12` [Example 312, 6-(2-chloro-6-fluorophenyl)-8-methyl-2-{[4-(4-methylpiperazin-1-yl)phenyl]amino}pyrimido[4,5-d]pyridazin-5(6H)-one], the Ki was 1.9 nM.

The molecule `CC(=O)N1CCc2cc(Nc3ncc4c(=O)n(-c5c(Cl)cccc5Cl)nc(C(F)F)c4n3)ccc2C1` [Example 476, 2-[(2-acetyl-1,2,3,4-tetrahydroisoquinolin-6-yl)amino]-6-(2,6-dichlorophenyl)-8-(difluoromethyl)pyrimido[4,5-d]pyridazin-5(6H)-one] came in with a Ki of 0.17 nM.

`Cc1nn(-c2c(Cl)cccc2Cl)c(=O)c2cnc(Nc3ccc(N4C[C@H]5C[C@@H]4CN5)cc3)nc12` [Example 457, 2-({4-[(1R,4R)-2,5-diazabicyclo[2.2.1]hept-2-yl]phenyl}amino)-6-(2,6-dichlorophenyl)-8-methylpyrimido[4,5-d]pyridazin-5(6H)-one] came in with a Ki of 0.28 nM.

For the molecule `O=c1c2cnc(Nc3ccc4c(c3)CNCC43CC3)nc2c(-c2ccccn2)nn1-c1c(Cl)cccc1Cl` [Example 221, 6-(2,6-dichlorophenyl)-2-(2′,3′-dihydro-1′H-spiro[cyclopropane-1,4′-isoquinolin]-7′-ylamino)-8-(pyridin-2-yl)pyrimido[4,5-d]pyridazin-5(6H)-one], the affinity, expressed as Ki, was 0.2 nM.

For the molecule `CCc1nn(-c2c(Cl)cccc2Cl)c(=O)c2cnc(Nc3ccc4c(c3)CNCC43CC3)nc12` [Example 404, 6-(2,6-dichlorophenyl)-2-(2′,3′-dihydro-1′H-spiro[cyclopropane-1,4′-isoquinolin]-7′-ylamino)-8-ethylpyrimido[4,5-d]pyridazin-5(6H)-one], the affinity, expressed as Ki, was 0.25 nM.

For the molecule `CC(=O)N1Cc2cc(Nc3ncc4c(=O)n(-c5c(Cl)cccc5Cl)nc(-c5ccccn5)c4n3)ccc2C2(CC2)C1` [Example 375, 2-[(2′-acetyl-2′,3′-dihydro-1′H-spiro[cyclopropane-1,4′-isoquinolin]-7′-yl)amino]-6-(2,6-dichlorophenyl)-8-(pyridin-2-yl)pyrimido[4,5-d]pyridazin-5(6H)-one], the Ki is 1.2 nM.

Molecule `CN1CCN(c2ccc(Nc3ncc4c(=O)n(-c5c(Cl)cccc5Cl)nc(-c5cccc(N(C)C)c5)c4n3)cc2)CC1` [Example 90, 6-(2,6-dichlorophenyl)-8-[3-(dimethylamino)phenyl]-2-{[4-(4-methylpiperazin-1-yl)phenyl]amino}pyrimido[4,5-d]pyridazin-5(6H)-one] gave a Ki of 0.2 nM.

Molecule `CN1CCN(c2ccc(Nc3ncc4c(=O)n(-c5c(Cl)cccc5Cl)nc(-c5cccc(C(=O)N(C)C)c5)c4n3)cc2)CC1` [Example 189, 3-[6-(2,6-dichlorophenyl)-2-{[4-(4-methylpiperazin-1-yl)phenyl]amino}-5-oxo-5,6-dihydropyrimido[4,5-d]pyridazin-8-yl]-N,N-dimethylbenzamide] showed a Ki of 0.02 nM.

`Cc1nn(-c2c(Cl)cccc2Cl)c(=O)c2cnc(Nc3ccc4c(c3)CC(N(C)C)C4)nc12` (centres unmarked) [Example 397, 6-(2,6-dichlorophenyl)-2-{[2-(dimethylamino)-2,3-dihydro-1H-inden-5-yl]amino}-8-methylpyrimido[4,5-d]pyridazin-5(6H)-one]: the Ki amounted to 1 nM.

The record behind these values is patent publication US8796289B2 (AbbVie Inc., priority 2011, dated 2014).
